According to patent US20200270309A1, “MALEIMIDE GROUP-MODIFIED ANGIOGENESIS INHIBITOR HM-1 AND USE THEREOF” (NANJING ANJI BIOLOGICAL TECHNOLOGY CO., LTD, priority 2017, published 2020):
Peptide text beside a SMILES is read from it. * marks the point of attachment. X60 = O=C1C=CC(=O)N1c1ccccc1CCCCCCCCCC(=O)*; X46 = O=C1C=CC(=O)N1c1cccc(CCCCC(=O)*)c1

How the values were obtained:
HUVECs = experiment: Transwell migration inhibition on HUVECs; type: cell-based, human; settings: HUVEC migration vs blank control
splenic lymphocytes = experiment: Proliferation of splenic lymphocytes in mice (ConA, MTT); type: cell-based; settings: ConA-stimulated mouse splenic lymphocytes, 48 h
Procedure: Spleens of mice were taken out under aseptic conditions, washed with blank 1640 culture medium 3 times, ground with a 5 mL syringe core, filtered with a 200-mesh sieve, made into a single cell suspension. The suspension was centrifuged (1000 rpm×5 min), and supernatant was removed. Red blood cells were lysed by Tris-NH4Cl, and placed in ice water bath for 4 min and centrifuged (1000 rpm×5 min). The supernatant was removed, and the cells were washed twice with sterile PBS. Finally, RPMI 1640 culture solution (5 mL) containing 10% calf serum was added to suspend the cells. The cells were counted and the cell concentration was adjusted to 5×10^6 cells/mL, and the cells were cultured in a 96-well culture plate.
Blank control group, concanavalin A (ConA) group and dexamethasone (Dex) group were set in the experiment, and polypeptide X1-X90 groups were set as test groups. After 100 μL of splenic lymphocytes suspension per well was added into each group, 100 μL of blank 1640 culture solution was added into the blank control group, ConA was added into the ConA group, Dex was added into the Dex group, and ConA was added into the test groups on the basis of adding different concentrations of polypeptides X1-X90. The cells were static cultured at 37° C. in a cell incubator for 48 h. After the cultivation was completed, 20 μL of MTT was added to each well, and the cultivation was continued for 4 h. Finally, all the solutions in each well were discarded. 100 μL DMSO was added to each well and shaken, and the OD value at 570 nm was detected with a microplate reader. Five parallel experiments were set in each well.

[1] = tested on: IL-1β production by mouse peritoneal macrophages; experiment: IL-1β production by mouse peritoneal macrophages (ELISA); type: cell-based; settings: for Inhibition rate: IL-1β production, vs model group; for IL-1β: mouse peritoneal macrophages, 48 h, ELISA
Procedure: Mice were injected intraperitoneally with 1 mL of broth culture medium (containing 6% of starch). Three days later, mice peritoneal macrophages were taken aseptically and washed twice with 1640 culture medium, and the cell concentration was adjusted to 2×10^6 cells/mL. The solutions were injected into 24-well culture plates at 1 mL per well. The cells were incubated in a cell incubator for 3 h and vibrated once every 30 min to make the cells fully adhere to the wall. Then, the cells were washed twice with a culture solution to remove non-adhered cells. PBS was added to the blank group, positive drug Dex was added to the positive group, no drug was added to the model group, and polypeptides X1-X90 with low, medium and high concentrations were added to the test groups; and the cells were continuously cultured for 48 h after administration, and then centrifuged at 1000 r/min for 15 min. The supernatant was collected as a sample to be tested for IL-1β activity.

[2] = tested on: collagen-induced arthritis; experiment: Mouse collagen-induced arthritis (CIA) animal model; type: in vivo; settings: DBA/1 mice CIA model, dose 4.0 mg/kg, subcutaneous from day 30, n=10; for Clinical score: highest score 16
[3] = tested on: corneal neovascularization; experiment: Corneal neovascularization induced by alkali burn in BALB/c mice; type: in vivo; set-up: Inhibition rate (corneal neovascularization): concentration or dose not given beside the values; settings: day 14 after alkali burn, vitreous injection once a day for 1 week
[4] = tested on: retinal vascular endothelial nuclei; experiment: Neovascularization in a rat model of premature retinopathy; type: in vivo, rats; settings: dose 0.05 μM in the vitreous chamber from day 7 of modeling for one week; counted on day 14; oxygen-induced neonatal rats
Procedure: Using a fluctuating oxygen-induced animal model, newborn rats born naturally on the same day (within 12 h) were randomly divide into three groups: an oxygen model group, an oxygen treatment group and a normal control group. The oxygen model was further divided into three sub-group model groups, and the sub-group model groups and the treatment group were all placed in a semi-closed oxygen chamber made of organic glass; medical oxygen was introduced into the chamber, and the concentration was adjusted to 80%±2% by an oxygen meter; nitrogen was introduced into the oxygen chamber after 24 h, and the oxygen concentration was adjusted to 10%±2% rapidly and maintained for 24 h. This was repeated to keep the oxygen concentration in the oxygen chamber alternating between 80% and 10% every 24 h, the oxygen concentration was maintained for 7 d, and then the rats were fed in the air. The oxygen concentration was monitored 8 times a day, and the ambient temperature in the chamber was controlled at 23° C.±2° C. Bedding was replaced, feed was added, and water and mother rats were replaced once. The normal control group was placed in the animal room feeding environment. […] The oxygen treatment group was divided into three subgroups. On day 7 of modeling, X1-[…], […]-[…] and […]-X90 were injected in the vitreous chamber respectively, and the oxygen model group and the control group were only given normal saline for one week. On day 14, after the rats were anesthetized by diethyl ether and killed, eyeballs were extracted and fixed in 40 g/L paraformaldehyde solution for 24 h. Gradient dehydration by alcohol was performed, and the eyeballs were processed by xylene to be transparent. After waxing, the eyeballs were sectioned continuously to a thickness of 4μm, and the periphery of the optic disc should be avoided as much as possible. The sections were parallel to the sagittal plane from cornea to the optic disc. Ten sections of each eyeball were randomly taken and stained with hematoxylin eosin, the number of vascular endothelial nuclei that broke through the inner limiting membrane of the retina (only the number of vascular endothelial nuclei closely related to the inner limiting membrane were counted) was counted, and statistics of the average number of cells per section per eyeball was performed. Results: In the control group, there were no vascular endothelial nuclei that broke through the inner limiting membrane of the retina and grew into vitreous body, or the vascular endothelial nuclei were occasionally found in only a few sections. In the model group, there were many vascular endothelial nuclei that broke through the inner limiting membrane of the retina, some appeared alone, and some appeared in clusters. At the same time, on some sections, these vascular endothelial nuclei were also found adjacent to deep retinal vessels, confirming that they originated from the retina rather than the vitreous body or other ocular tissues. In the treatment group, only a few vascular endothelial nuclei that broke through the inner limiting membrane of retina could be seen in the sections.

SMILES	Inhibition rate (%) (HUVECs; dose 0.05 μM)	Inhibition rate (%) (HUVECs; dose 0.1 μM)	Inhibition rate (%) (HUVECs; dose 0.2 μM)	A570 nm/A630 nm (splenic lymphocytes; polypeptide dose 0.05 μM)	Inhibition rate (%) (splenic lymphocytes; polypeptide dose 0.05 μM)	A570 nm/A630 nm (splenic lymphocytes; polypeptide dose 0.1 μM)	Inhibition rate (%) (splenic lymphocytes; polypeptide dose 0.1 μM)	A570 nm/A630 nm (splenic lymphocytes; polypeptide dose 0.2 μM)	Inhibition rate (%) (splenic lymphocytes; polypeptide dose 0.2 μM)	Inhibition rate ([1]; dose 0.05 μM)	IL-1β ([1]; dose 0.05 μM)	Inhibition rate ([1]; dose 0.1 μM)	IL-1β ([1]; dose 0.1 μM)	Inhibition rate ([1]; dose 0.2 μM)	IL-1β ([1]; dose 0.2 μM)	Joint swelling degree (mm) [2]	Left and right paw swelling degree (mm) [2]	Clinical score [2]	Inhibition rate (corneal neovascularization) [3]	MVD (corneal microvessel density) [3]	also measured
C[C@H](NC(=O)CNC(=O)[C@H](CCCNC(=N)N)NC(=O)CCCCc1cccc(N2C(=O)C=CC2=O)c1)C(=O)N[C@@H](CC(=O)O)C(=O)N[C@@H](CCCNC(=N)N)C(=O)N[C@@H](C)C(=O)NCC(=O)NCC(=O)NCC(=O)NCC(=O)N[C@@H](CCCNC(=N)N)C(=O)NCC(=O)N[C@@H](CC(=O)O)C(=O)O [X28] (X46-RGADRAGGGGRGD-OH)	43.01%	52.75%	53.13%	0.5765 ± 0.0594	14.64%	0.5541 ± 0.0486	17.96%	0.5087 ± 0.0793	24.68%	15.78%	792.64 ± 11.74 pg/mL	31.90%	640.89 ± 14.7 pg/mL	32.28%	637.34 ± 10.85 pg/mL	0.72 ± 0.18 mm	0.73 ± 0.18 mm	8.83 ± 1.26	46.59%	35.91 ± 4.891	Nuclei count (retinal vascular endothelial nuclei, average per section per eyeball) [4]: 9.261 ± 3.879
C[C@H](NC(=O)CNC(=O)[C@H](CCCNC(=N)N)NC(=O)CCCCCCCCCc1ccccc1N1C(=O)C=CC1=O)C(=O)N[C@@H](CC(=O)O)C(=O)N[C@@H](CCCNC(=N)N)C(=O)N[C@@H](C)C(=O)NCC(=O)NCC(=O)NCC(=O)NCC(=O)N[C@@H](CCCNC(=N)N)C(=O)NCC(=O)N[C@@H](CC(=O)O)C(=O)O [X21] (X60-RGADRAGGGGRGD-OH)	48.94%	50.61%	52.23%	0.5904 ± 0.0399	12.59%	0.5776 ± 0.1193	14.48%	0.4947 ± 0.1055	26.75%	17.80%	773.58 ± 10.52 pg/mL	32.29%	637.22 ± 12.95 pg/mL	44.01%	526.94 ± 17.75 pg/mL	0.81 ± 0.14 mm	0.83 ± 0.16 mm	8.79 ± 1.43	45.93%	36.36 ± 3.663	Nuclei count (retinal vascular endothelial nuclei, average per section per eyeball) [4]: 7.222 ± 3.567
